Experimental findings from patent US11648291B2, “Method of using PRD, PRD-S TAD, ZF7 peptide or mixture thereof to inhibit cellular response to inflammatory stimuli or treat cytokine-storm-mediated diseases” (GUANGZHOU MEDICAL UNIVERSITY, priority 2020, dated 2023) are described below.

Values joined by “and” are separate entries in the source; they are usually repeats but may differ in a detail not shown here. Equal values may be shown once.

Test [1] concerns cellular response to TNFα, IL-1β, and LPS. In words: Cellular response to TNFα, IL-1β and LPS, data not shown (control peptide, biotin-tagged peptides). It is filed as cell-based. As to conditions: for effect of biotin on the activity of the peptide: biotin attached to the N-terminus. The source says: (§1) In order to test the hypotheses that the PRD and TAD peptides inhibit the response to pro-inflammatory stimuli such as TNFα, IL-1β, and LPS, the peptides were synthesized and transfected into HCT-8 cells using a protein transfection reagent (Pierce). […] Next, we tested whether they can inhibit the expression of genes induced by TNFα, IL-1β, and LPS in human PBMCs. Both peptides indeed inhibited the expression of IL-6, IL-1β, IL-8, and arginase induced by TNFα, IL-1β, or LPS (FIG. 4B). Since both peptides are highly hydrophobic, we tested whether they can penetrate cells. Indeed, both peptides inhibited TNFα- or IL-1β-induced IL-8 expression with or without the transfection agent in HCT-8 cells, although it took more peptides to produce the similar level of inhibition (FIG. 4C, left panel). […] We tested a random peptide sequence ([…], SEQ ID NO:41) as a control and it had no effect on the cellular response to TNFα, IL-1β, and LPS (data not shown).
(§2) Recent findings identified the ZF7 (zinc finger domain 7) as the key domain for A20 to suppress inflammation (FIG. 6A). We hypothesized that ZF7 peptide inhibit the TNFα response just as PRD and TAD peptides do. […] Next, we tested whether ZF7 inhibits LPS response in vivo. We injected mice with a high dose of LPS (200 μg/mouse) or LPS+ZF7 (200 μg/mouse) and collected the sera after 3 hours. […] In order to tract ZF7 peptide inside cells, biotin was attached to the N-terminus to ZF7 peptide.

Test [2] deals with TNFα-induced IL-8 expression in HCT-8 cells. In words: TNFα/IL-1β-induced IL-8 expression in HCT-8 cells (IL-8 ELISA). It is filed as cell-based, human. As to conditions: for expression of IL-8 by the peptides themselves: no stimulus; for TNFα- or IL-1β-induced IL-8 expression: HCT-8, with or without the transfection agent, 1 μg/ml, TNFα 2 ng/ml or IL-1β 1 ng/ml, more peptide needed without transfection. The procedure:
The indicated amount of the peptides was transfected into HCT-8 as described in the method. The transfected cells were stimulated with TNFα (4 hours after peptide transfection) for 24 hours. IL-8 expression was measured by ELISA. The results are the representative of 3 similar experiments.
(§3) HCT-8 cells were transfected with the peptides or just treated with them without transfection (1 μg/ml) and stimulated with TNFα (2 ng/ml) or IL-1-β (1 ng/ml) for 24 hours. PMBCs were treated with the indicated amount of each peptide (no transfection) and stimulated with TNFα (2 ng/ml) for 24 hours. IL-8 expression was measured by ELISA. The results are the representative of 2 similar experiments.
HCT-8 cells were stimulated with TNFα (2 ng/ml) with the indicated amount of PRD-S peptide for 24 hours. IL-8 expression was measured by ELISA.
Human PBMCs and THP-1 cells were cultured in RPMI-1640 while FLS and HCT-8 cells in DMEM, supplemented with 10% fetal bovine serum and maintained in a humidified incubator at 37° C. with 5% CO2 in air.
(§4) IL-8 LEISA kit was purchased from ThermoFisher and ELISA was performed according to the manufacturer's instruction.
Peptides were transfected into the cells using Pierce Protein Transfection Reagent Kit™ according to the manufacturer's instruction. The Pierce Reagent in methanol was pipetted into a tube and the solvent was evaporated in the hood. Peptides were diluted in PBS and mixed with the dried Pierce Reagent. The peptides/Reagent complex was added to the cells in serum-free medium. After 4 hours, the medium containing serum was added to the cells and the cells were used for experiments.
as §1
Based on the sequence analysis of the YAP1 mutants (FIG. 2A), we tested whether the shortest PRD peptide (M1) inhibits the TNFα response. We named this peptide as PRD-S(small).
as §2

Test [3] concerns gene expression induced by TNFα, LPS, or IL-1β in human PBMCs. Nature of the test: Gene expression induced by TNFα, LPS or IL-1β in human PBMCs (ELISA, LegendPlex). In kind it is cell-based. The following applies: transfected PRD 1 μg or TAD 0.5 μg, TNFα 2 ng/ml, LPS 50 ng/ml or IL-1β 2 ng/ml, 24 hours. The procedure: PBMCs were transfected with either PRD (1 μg) or TAD (0.5 μg) as described in the method. The transfected cells were stimulated with TNFα (2 ng/ml), LPS (50 ng/ml), or IL-1β (2 ng/ml), 4 hours after peptide transfection, for 24 hours. IL-8 expression was measured by ELISA and IL-6, IL-1β, and arginase levels were measured by flow cytometry using LegendPlex as described in the method. The results are the representative of 3 similar experiments.
as §3, §4
All steps of PBMC preparation were carried out at room temperature. The blood from the same donor was pooled and mixed 1:1 with pre-warmed (room temperature) 1×PBS (without Ca^2+ or Mg^2+). […]
To simultaneously quantify the concentration of the soluble inflammatory cytokines and chemokines, the cell culture supernatant was analyzed by using the bead-based multiplex LEGENDplex™ (Biolegend) according to the manufacturer's instruction. […]

The test system of test [4] is TNFα response in HCT-8 cells (C, A20 KD, YAP KD). In words: TNFα response (IL-8 ELISA) in control, A20 KD and YAP KD HCT-8 cells. In kind it is cell-based, human. As to conditions: TNFα 2 ng/ml overnight. The procedure:
HCT-8 cells (C, A20 KD, YAP KD) were treated with PRD, TAD, or ZF7 peptide (1 μg/ml) and stimulated with TNFα (2 ng/ml) overnight. IL-8 levels in the medium were measured by ELISA. The results are the representative of 2 similar experiments. IL-8 LEISA kit was purchased from ThermoFisher and ELISA was performed according to the manufacturer's instruction. Next, we investigated how PRD, TAD, and ZF7 peptides inhibit the TNFα response. The PRD, TAD, and ZF7 peptides have the same effect as either YAP9 OE (over-expression) or A20 OE, respectively. Since YAP9 OE or A20 OE is futile in the absence of the other (FIGS. 5B and 5C), PRD or TAD peptide should also require the presence of A20 while ZF7 peptide the presence of YAP9. Indeed, our data supported this notion. When both YAP9 and A20 are present (C), all 3 peptides inhibited the TNFα response.

A further test deals with LPS response in mice. In words: LPS response in mice: serum cytokines and chemokines by LegendPlex (Table 1). It is filed as in vivo, C57BL/6 mice. How it is done:
as §2
Table.1 ZF7 peptide inhibits the LPS response in mice. C57BL/6 mice (n=2) were injected intraperitoneally with LPS (200 μg/mouse) or LPS (200 μg/mouse)+ZF7 peptide (200 μg/mouse) and the sera were collected after 3 hours. The cytokines and chemokines in the sera were measured by LegendPlex according to the manufacturer's instruction. The number represents pg/ml.

Another test concerns LPS-induced mortality. Nature of the test: LPS-induced mortality in mice. It is filed as in vivo, mice (C57B/6). The following applies: mice n=5, LPS 200 μg + ZF7 300 μg i.p., observed 7 days; LPS control group 60% mortality. How it is done: Mice (8-week old, C57B/6, n=5) were injected with LPS (200 μg) or LPS (200 μg)+ZF7 (300 μg) in 200 μl PBS intraperitoneally.
Since ZF7 inhibited LPS-induced cytokine production in mice (Table 1), we next tested whether ZF7 peptide can protect mice from LPS-induced mortality.

Setting [5] is: HCT-8, peptides transfected, TNFα 24 hours, ELISA.
Setting [6] is: control HCT-8 (both YAP9 and A20 present), peptide 1 μg/ml.
[7] abbreviates: serum 3 hours after i.p. LPS 200 μg/mouse + ZF7 200 μg/mouse, one line per mouse (n=2).

For “ARNDCEQGHILKMFPSTWYV [random peptide sequence, reference compound]”, the “effect on the cellular response to TNFα, IL-1β, and LPS” value in test [1] (control peptide) was “no effect”.
Take “GQPPSQPPQGQGPPSGPGQPAPAATQAAPQ (listed as Homo sapiens) [PRD]”: in test [2] (setting [5]), the “TNFα-induced IL-8 expression” value is listed as “suppressed”. Besides, in test [2] (HCT-8, peptides transfected), the “expression of IL-8 by the peptides themselves” value was “did not affect”. Also, the “TNFα- or IL-1β-induced IL-8 expression” value in test [2] (24 hours) is “inhibited”. Further, the “expression of IL-6, IL-1β, IL-8, and arginase induced by TNFα, IL-1β, or LPS” value in test [3] is “inhibited”. Moreover, the “TNFα response (IL-8)” value in test [4] (A20 KD HCT-8, peptide 1 μg/ml) is reported as “significantly less effective”; in test [4] (YAP KD HCT-8, peptide 1 μg/ml), “retained their full inhibitory capacity”; in test [4] (setting [6]) it was “inhibited”. For the same sequence, the “effect of biotin on the activity of the peptide” value (from here on “effect of biotin”) in test [1] is on record as “did not affect the activity”.
In the case of “PPKQRCRAPACDHFGNAKCNGYCNECYQFKQMYG (listed as Homo sapiens) [ZF7]”, the “TNFα response (IL-8 ELISA)” value in test [2] (HCT-8, without transfection, TNFα 2 ng/ml overnight) is listed as “significantly inhibited”. In test [4] (A20 KD HCT-8, peptide 1 μg/ml), the “TNFα response (IL-8)” value is “retained its full inhibitory capacity”. In addition, the “TNFα response (IL-8)” value in test [4] (YAP KD HCT-8, peptide 1 μg/ml) is given as “ineffective”. The “TNFα response (IL-8)” value in test [4] (setting [6]) is on record as “inhibited”. The “effect of biotin” value in test [1] is on record as “did not affect the activity”. Moreover, the “all the cytokines and chemokines measured in sera” value with LPS response in mice (mice, LPS 200 μg/mouse + ZF7 200 μg/mouse, sera after 3 hours) is on record as “almost completely inhibited”. For the same sequence, in the test on LPS response in mice (setting [7]), the CCL2 was 238.13 pg/mL and 222.5 pg/mL; the GMCSF was <18.38 pg/mL; the IFNβ is <4.36 pg/mL; the IFNγ was <0.53 pg/mL and 87.58 pg/mL. In the test with LPS response in mice (setting [7]), the IL1-β is <4.33 pg/mL and 14.99 pg/mL; the IL-1α was <26.12 pg/mL and 57.24 pg/mL; the IL-6 was 4142.37 pg/mL and 1570.50 pg/mL; the IL-10 was <9.48 pg/mL and 65.31 pg/mL. In addition, in the test with LPS response in mice (setting [7]), the IL-17A is <4.47 pg/mL and 129.84 pg/mL; the IL-27 is <8.56 pg/mL and 137.96 pg/mL; the TNFα was <4.10 pg/mL and 44.45 pg/mL. Also, the LPS-induced mortality entry in the test on LPS-induced mortality is given as “no mortality”.
On to “QPPGQGPPSGPGQPA (listed as Homo sapiens) [PRD-S]”, for which the “TNFα-induced IL-8 expression” value in test [2] (HCT-8, PRD-S without transfection, TNFα 2 ng/ml, 24 hours) is recorded as “inhibited TNFα-induced IL-8 expression in a dose-response manner”.
Take “RQAMRININPSTANSPKCQE (listed as Homo sapiens) [TAD]”: in test [2] (HCT-8, peptides transfected), the “relative potency in suppressing TNFα-induced IL-8 expression” value was “more potent than PRD peptide”. The “TNFα-induced IL-8 expression” value in test [2] (setting [5]) is given as “suppressed”. Besides, the “expression of IL-8 by the peptides themselves” value in test [2] (HCT-8, peptides transfected) is recorded as “did not affect”. For the same sequence, in test [2] (24 hours), the “TNFα- or IL-1β-induced IL-8 expression” value is given as “inhibited”. Also, the “expression of IL-6, IL-1β, IL-8, and arginase induced by TNFα, IL-1β, or LPS” value in test [3] is “inhibited”. Besides, the “TNFα response (IL-8)” value in test [4] (A20 KD HCT-8, peptide 1 μg/ml) was “significantly less effective”; in test [4] (YAP KD HCT-8, peptide 1 μg/ml), “retained their full inhibitory capacity”; in test [4] (setting [6]), “inhibited”. Further, in test [1], the “effect of biotin” value is on record as “did not affect the activity”.
